Read-outs that look alike come from different tables or passages of the source.
Legend:
[1] = Assay IV: metabolism of conjugate to fusaric acid in rat kidney homogenate; format: in vitro ADME
Description: A freshly excised rat kidney was homogenized in 10 ml cold buffer (100 mM Tris, 15 mM glycylglycine, pH 7.4) with a Polytron Tissue Homogenizer (Brinkmann). The resulting suspension, diluted with buffer, was incubated in the presence of the Ex. #859 conjugate at 37° C. At various times aliquots were removed, deproteinized with an equal volume of cold trichloroacetic acid (25%) and centrifuged. The supernatant was injected onto a C-18 reverse-phase HPLC column and eluted isocratically with a mixture of acetonitrile and water (20:80 v/v) containing trifluoroacetic acid (0.05%). Eluted compounds were monitored by absorbance at 254 nm and compared to standards run under identical conditions. In the assay using pure kidney enzyme homogenate, the Ex. #859 conjugate was also incubated under the same conditions as described except that 5 mg of gamma-glutamyl transpeptidase (Sigma, 23 units/mg) and 10 mg of acylase I (Sigma, 4800 units/mg) were added in place of the homogenate. Analysis by HPLC was performed in a manner identical to that used for the kidney homogenate experiment.

[2] = target: T1, dopamine beta-hydroxylase (DBH; EC 1.14.17.1) (Bos taurus, UniProt P15101); assay: Assay V: in vitro DBH inhibition (norepinephrine production, HPLC); format: biochemical, bovine; details: for inhibition at 20 µM: read-out: % Inhibition of DBH; for inhibitory effect on dopamine-β-hydroxylase activity: tested at 20 uM
T1 construct: DBH, purified from bovine adrenals (Sigma); purchased Sigma; host or cells: bovine adrenals (tissue-purified)
T1 sequence (P15101 1-610): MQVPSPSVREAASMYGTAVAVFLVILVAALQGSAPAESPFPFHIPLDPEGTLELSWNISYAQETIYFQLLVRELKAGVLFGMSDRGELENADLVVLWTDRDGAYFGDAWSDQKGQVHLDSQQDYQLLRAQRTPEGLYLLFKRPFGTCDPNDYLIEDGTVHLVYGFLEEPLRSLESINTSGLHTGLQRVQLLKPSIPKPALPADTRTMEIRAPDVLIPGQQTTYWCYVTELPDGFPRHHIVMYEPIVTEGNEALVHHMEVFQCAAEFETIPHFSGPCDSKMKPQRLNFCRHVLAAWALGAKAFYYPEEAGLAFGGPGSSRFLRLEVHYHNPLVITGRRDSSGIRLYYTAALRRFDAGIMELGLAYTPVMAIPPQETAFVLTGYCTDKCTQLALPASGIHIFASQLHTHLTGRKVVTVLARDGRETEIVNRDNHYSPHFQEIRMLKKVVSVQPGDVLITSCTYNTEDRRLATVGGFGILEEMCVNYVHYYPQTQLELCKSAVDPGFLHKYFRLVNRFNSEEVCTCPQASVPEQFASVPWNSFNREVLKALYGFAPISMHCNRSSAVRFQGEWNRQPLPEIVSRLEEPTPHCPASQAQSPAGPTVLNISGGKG
Description: In order to characterize the relative potency of the Ex. #859 conjugate and its various potential metabolites as inhibitors of dopamine beta-hydroxylase (DBH; EC 1.14.17.1), the enzyme activity was determined in vitro in the presence of these compounds. DBH, purified from bovine adrenals (Sigma) was incubated at 37° C. in buffer containing 20 mM dopamine as substrate. The reaction was stopped by addition of 0.5 M perchloric acid. The precipitate was removed and the product of the enzyme activity (norepinephrine), contained in the clear supernatant, was analyzed by HPLC. The chromatographic separation used a reversed phase C-18 column run isocratically with 0.2 M ammonium acetate (pH 5.2) as the mobile phase. The amount of norepinephrine produced by the enzyme-substrate mixture was analyzed by measuring the peak intensity (absorbance) at 280 nm for norepinephrine as it was eluted at 4.5 minutes, using a photo-diode array detector. The result of adding either fusaric acid or the Ex. #859 conjugate to the incubate at various concentrations is shown in Table XXIII and FIG. 6. […] Fusaric acid and Ex. #859 and two more possible metabolites (Ex #858 and fusaric acid hydrazide) were tested at 20 uM.

conscious SHR = assay: Assay XIII: antihypertensive experiments in conscious SHR (renal denervation, bulbocapnine); format: in vivo, rat
Description: For antihypertensive experiments, male SHR (11-13 weeks of age; Harlan Sprague-Dawley, Inc.; Indianapolis, Ind.) were habituated for 3-4 days in individual experimental cages, which became their home cages for the duration of the study. Five to seven days before experimentation, SHR were anesthetized with chloral hydrate (400 mg/kg; Sigma Chemical Co., St. Louis, Mo.) and catheters were implanted into a femoral artery and vein. The catheters were led to the back of the neck, exteriorized, and channeled through a tether and swivel system (Alice King Chatham, Los Angeles, Calif.). Surgical renal denervation was performed as above. […] In separate groups of conscious SHR, Ex. #859 (5 mg/kg/hr, n=6) was infused alone, Ex. #859 (5 mg/kg/hr, n=6) was coinfused with bulbocapnine (100 μg/kg/min), or Ex. #859 (10 mg/kg/hr, n=6) was infused 5-7 days after surgical renal denervation. Surgical renal denervation was performed as described above. After a one hour control measure of mean arterial pressure, compounds were infused for four hours and mean arterial pressure was measured continuously.

Compound: CCCCc1ccc(C(=O)NNC(=O)CCC(NC(C)=O)C(=O)O)nc1 [Ex. #859, N-acetyl-L-glutamic acid, 5-[(5-butyl-2-pyridinyl)-carbonyl]hydrazide]
- amount of fusaric acid liberated on incubation ([1]; kidney homogenate, 37° C): linear increase
- other metabolites observed (fusaric acid hydrazide, gamma-glutamyl fusaric acid hydrazide) ([1]; kidney homogenate, 37° C): No fusaric acid hydrazide or gamma-glutamyl fusaric acid hydrazide was observed
- Norepinephrine Peak Intensity (Abs 280) in the presence of compound ([2]; compound 0.10 μM): 0.51 Abs 280
- Norepinephrine Peak Intensity (Abs 280) in the presence of compound ([2]; compound 1.00 μM): 0.52 Abs 280
- Norepinephrine Peak Intensity (Abs 280) in the presence of compound ([2]; compound 10.00 μM): 0.61 Abs 280
- Norepinephrine Peak Intensity (Abs 280) in the presence of compound ([2]; compound 100.00 μM): 0.53 Abs 280
- DBH inhibitory activity ([2]; concentrations up to 100 uM): no appreciable activity
- inhibition at 20 µM ([2]; test compound 20 μM): 1.5%
- inhibitory effect on dopamine-β-hydroxylase activity [2]: Only fusaric acid had significant inhibitory effects
- Mean arterial pressure (conscious SHR; BULBO: 5 mg/kg/hr coinfused with bulbocapnine 100 μg/kg/min, 0 hours): 168 ± 8
- Mean arterial pressure (conscious SHR; BULBO: 5 mg/kg/hr coinfused with bulbocapnine 100 μg/kg/min, 1 hour): 158 ± 6
- Mean arterial pressure (conscious SHR; BULBO: 5 mg/kg/hr coinfused with bulbocapnine 100 μg/kg/min, 2 hours): 148 ± 5
- Mean arterial pressure (conscious SHR; BULBO: 5 mg/kg/hr coinfused with bulbocapnine 100 μg/kg/min, 3 hours): 140 ± 7
- Mean arterial pressure (conscious SHR; BULBO: 5 mg/kg/hr coinfused with bulbocapnine 100 μg/kg/min, 4 hours): 140 ± 5
- Mean arterial pressure (conscious SHR; DNX: 10 mg/kg/hr after surgical renal denervation, 0 hours): 157 ± 3
- Mean arterial pressure (conscious SHR; DNX: 10 mg/kg/hr after surgical renal denervation, 1 hour): 155 ± 4
- Mean arterial pressure (conscious SHR; DNX: 10 mg/kg/hr after surgical renal denervation, 2 hours): 53 ± 4
- Mean arterial pressure (conscious SHR; DNX: 10 mg/kg/hr after surgical renal denervation, 3 hours): 150 ± 4
- Mean arterial pressure (conscious SHR; DNX: 10 mg/kg/hr after surgical renal denervation, 4 hours): 147 ± 4
- effect on mean arterial pressure over a four hour period (conscious SHR; conscious SHR, 5 mg/kg/hr coinfused with bulbocapnine (100 μg/kg/min)): lowered mean arterial pressure similar to Ex. #859 alone
- antihypertensive response (conscious SHR; conscious SHR, 10 mg/kg/hr, 5-7 days after surgical renal denervation): prevented the antihypertensive response
- effect on mean arterial pressure over a four hour period (conscious SHR; conscious SHR, continuous infusion 5 mg/kg/hr alone): antihypertensive
- Mean arterial pressure (conscious SHR; infused alone 5 mg/kg/hr, 0 hours): 177 ± 6
- Mean arterial pressure (conscious SHR; infused alone 5 mg/kg/hr, 1 hour): 172 ± 6
- Mean arterial pressure (conscious SHR; infused alone 5 mg/kg/hr, 2 hours): 170 ± 7
- Mean arterial pressure (conscious SHR; infused alone 5 mg/kg/hr, 3 hours): 164 ± 7
- Mean arterial pressure (conscious SHR; infused alone 5 mg/kg/hr, 4 hours): 154 ± 6

Compound: CCCCc1ccc(C(=O)O)nc1 [Fusaric Acid, 5-n-butylpicolinic acid]
- stability of liberated fusaric acid ([1]; kidney homogenate incubation conditions): remains stable
- concentration above which the enzyme is inhibited ([2]; 20 mM dopamine as substrate, 37° C): > 1 µM
- Norepinephrine Peak Intensity (Abs 280) in the presence of compound ([2]; compound 0.01 μM): 0.59 Abs 280
- Norepinephrine Peak Intensity (Abs 280) in the presence of compound ([2]; compound 0.10 μM): 0.59 Abs 280
- Norepinephrine Peak Intensity (Abs 280) in the presence of compound ([2]; compound 0.50 μM): 0.60 Abs 280
- Norepinephrine Peak Intensity (Abs 280) in the presence of compound ([2]; compound 1.00 μM): 0.53 Abs 280
- Norepinephrine Peak Intensity (Abs 280) in the presence of compound ([2]; compound 5.00 μM): 0.25 Abs 280
- Norepinephrine Peak Intensity (Abs 280) in the presence of compound ([2]; compound 10.00 μM): 0.14 Abs 280
- Norepinephrine Peak Intensity (Abs 280) in the presence of compound ([2]; compound 50.00 μM): 0.00 Abs 280
- Norepinephrine Peak Intensity (Abs 280) in the presence of compound ([2]; compound 100.00 μM): 0.00 Abs 280
- inhibition at 20 µM [2]: 75.4%
- inhibitory effect on dopamine-β-hydroxylase activity [2]: significant inhibitory effects

Source: patent publication US20030220521A1, “Renal-selective prodrugs for control of renal sympathetic nerve activity in the treatment of hypertension” (G.D. Searle & Co., priority 1989, published 2003)
